Results from publication PMC7483518, “Destabilizing single chain major histocompatibility complex class I protein for repurposed enterokinase proteolysis” (Scientific Reports, 2020).
Values joined by “and” are separate entries in the source; they are usually repeats but may differ in a detail not shown here. Identical values can stand only once. Like-named read-outs stand apart in the source and are kept apart here.

Columns and labels:
[1] = system: HLA-A*11:01 single chain protein; assay type: biochemical, Human; design: EZ50kDa / EZ50kD (pH 6.2) / EZ50kD (pH 8) / EZ50kD (normalised: EBV1101 = 1, EBV0201 = 0) / EZ50kDa rank: unit not given beside the values; conditions: for EZ50kDa: Table 3, EGFR peptide library (n = 177, duplicated), pH 6.2, 37 °C, 14 h, enterokinase, Eq. (4);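 as to EZ50kDa: intact 50 kDa band volume scaled with positive control peptide as 1 and negative as 0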
[2] = target: photolabile unchained HLA-A*11:01 pMHC-I protein (Homo sapiens, UniProt P04439, A114D/D185E/E176A/F33Y/L180Q/S129P/T187R); test: ELISA with photolabile unchained pMHC-I protein and UV irradiation; assay type: binding
[3] = EASY MHC-I A*11:01, run 2019-08-08, 5min, mean of 2 replicates
[4] = EASY MHC-I A*11:01, run 2019-08-07, 5min, mean of 2 replicates
[5] = EASY MHC-I A*11:01, 2019-08-01, mean of the 2 replicates
[6] = EASY MHC-I A*11:01, 2019-07-26, mean of the 2 replicates
[7] = EASY MHC-I A*11:01, run 2019-08-06, 5min, mean of 2 replicates
[8] = EASY MHC-I A*11:01, 2019-07-25, mean of the 2 replicates
[9] = EASY MHC-I A*11:01, gel 2019-07-24 lr1046_ex1004 5min, replicate 1 (lanes 1-14)
[10] = EASY MHC-I A*11:01, gel 2019-07-24 lr1046_ex1004 5min, replicate 2 (lanes 15-28)

| Sequence | EZ_mean [1] | EASY_mean ([2]; […], mean, STDEV) | EASY_mean [2] | also measured |
| --- | --- | --- | --- | --- |
| ICLTSTVQLIMQ [TM1039] | -0.1704 | – | – | EASY_mean ([2]; ELISA signal, mean, […]): -0.09515 |
| ITDFGRAKLL [LR1022] | -0.0609 | -0.02159 | – | – |
| VQLIMQLMPFG [TM1034] | -0.1329 | – | – | EASY_mean ([2]; ELISA signal, mean, […]): -0.07888 |
| FGSLLDYVRE [CS1025] | -0.05956 | – | 0.005114 | – |
| VQLIMQLMPF [TM1023] | – | -0.02163 | – | EZ_mean [1, 3]: -0.03531; Norm_mean [1, 3]: -0.02177 |
| LMPFGSLLD [CS1012, probably meant CS1032] | -0.06046 | – | -0.02081 | EZ MHC-I stability with HLA-A*11:01 single chain protein ([1]; Fig. 2f,g, EGFR peptide library): strongly stabilizing |
| QLIMQLMPF [TM1014] | – | -0.03038 | – | EZ_mean [1, 4]: -0.09931 |
| MPFGSLLDYV [CS1023] | -0.04531 | – | 0.02198 | – |
| VQLITQLMPFGS [CS1039] | -0.04039 | – | -0.02003 | – |
| VAIKTSPKANKE [EX1026] | – | – | -0.02113 | EZ_mean [1, 5]: -0.1295 |
| DFGRAKLL [LR1005] | -0.05649 | – | – | EASY_mean ([2]; ELISA signal, mean, […]): -0.01718 |
| KITDFGRAKLLG [LR1044] | 0.1681 | – | 0.1191 | EZ50kD (normalised: EBV1101 = 1, EBV0201 = 0) [1]: 0.1471 and 0.1891; Norm (50 kDa band adj. volume normalised: Undig_37C = 1, Dig_37C = 0) [1]: 0.1017 and 0.1364; EZ50kDa [1]: 0.2 and 0.168 ± 0.030 |
| TSTVQLIMQLM [TM1031] | -0.09739 | -0.04936 | – | – |
| GRAKLLGAEE [LR1026] | -0.04989 | -0.01509 | – | – |
| TQLMPFGS [CS1001] | -0.06222 | – | 0.00928 | – |
| PVAIKTSPKAN [EX1017] | – | – | – | EZ_mean [1, 6]: -0.1176; EASY_mean ([2]; ELISA signal, mean, […]): -0.01335 |
| DFGRAKLLG [LR1014] | -0.05414 | – | – | EASY_mean ([2]; ELISA signal, mean, […]): -0.02793 |
| QLIMQLMPFGC [TM1035] | -0.1197 | – | – | EASY_mean ([2]; ELISA signal, mean, […]): -0.06893 |
| TQLMPFGSL [CS1010] | -0.05322 | – | -0.009401 | – |
| PFGSLLDY [CS1005] | -0.07269 | – | -0.004417 | – |
| LTSTVQLIM [TM1009] | – | -0.03424 | – | EZ_mean [1, 7]: -0.1009 |
| LIMQLMPF [TM1006] | – | -0.03127 | – | EZ_mean [1, 7]: -0.09815 |
| RAKLLGAE [LR1008] | -0.05335 | -0.01564 | – | – |

| Sequence | EZ_mean [1] | EASY_mean ([2]; […], mean, STDEV) | EASY_mean [2] | also measured |
| --- | --- | --- | --- | --- |
| TDFGRAKL [LR1004] | -0.05517 | -0.01664 | – | – |
| IPVAIKTSPKAN [EX1024] | – | – | -0.02211 | EZ_mean [1, 5]: -0.1301 |
| TVQLIMQLMP [TM1022] | – | – | – | EZ_mean [1, 3]: -0.0531; Norm_mean [1, 3]: -0.04425; EASY_mean ([2]; ELISA signal, mean, […]): -0.01505 |
| LTSTVQLIMQL [TM1030] | -0.07795 | -0.03337 | – | – |
| QLIMQLMPFGCL [TM1047] | -0.1111 | – | -0.05287 | – |
| CLTSTVQLIMQL [TM1040] | -0.1197 | – | – | EASY_mean ([2]; ELISA signal, mean, […]): -0.0545 |
| TSPKANKEILDE [EX1030] | – | – | -0.0262 | EZ_mean [1, 5]: -0.138 |
| QLITQLMPFGSL [CS1040] | -0.03735 | – | -0.0163 | – |
| VAIKTSPKAN [EX1011] | – | – | – | EZ_mean [1, 8]: -0.03763; EASY_mean ([2]; ELISA signal, mean, […]): -0.005285 |
| MPFGSLLDY [CS1013] | -0.0684 | – | -0.03532 | – |
| STVQLIMQLMP [TM1032] | -0.1174 | – | – | EASY_mean ([2]; ELISA signal, mean, […]): -0.06602 |
| RAKLLGAEEKE [LR1038] | -0.07295 | – | -0.00823 | – |
| STVQLIMQLMPF [TM1043] | -0.1271 | -0.05995 | – | – |
| LIMQLMPFGC [TM1025] | – | – | – | EZ_mean [1, 3]: -0.05365; Norm_mean [1, 3]: -0.04493; EASY_mean ([2]; ELISA signal, mean, […]): -0.02724 |
| TSPKANKEIL [EX1015] | – | -0.004833 | – | EZ_mean [1, 6]: -0.1061 |
| IMQLMPFGC [TM1016] | – | -0.02516 | – | EZ_mean [1, 4]: -0.08902 |
| TVQLIMQLMPFG [TM1044] | -0.09806 | – | – | EASY_mean ([2]; ELISA signal, mean, […]): -0.03569 |
| KIPVAIKTSPKA [EX1023] | – | – | -0.01234 | EZ_mean [1, 5]: -0.1135 |
| GSLLDYVR [CS1007] | -0.06759 | – | -0.02696 | – |
| RAKLLGAEE [LR1017] | -0.04971 | -0.0266 | – | – |
| PVAIKTSPKA [EX1010] | – | -0.007707 | – | EZ_mean [1, 8]: -0.04257 |
| TSPKANKEILD [EX1022] | – | – | – | EZ_mean [1, 6]: -0.1213; EASY_mean ([2]; ELISA signal, mean, […]): -0.01584 |
| TSPKANKEI [EX1009] | – | -0.005092 | – | EZ_mean [1, 8]: -0.03775 |

| Sequence | EZ_mean [1] | EASY_mean ([2]; […], mean, STDEV) | EASY_mean [2] | also measured |
| --- | --- | --- | --- | --- |
| STVQLIMQLM [TM1021] | – | -0.01593 | – | EZ_mean [1, 3]: -0.03318; Norm_mean [1, 3]: -0.01917 |
| IMQLMPFGCL [TM1026] | – | – | – | EZ_mean [1, 3]: -0.06176; Norm_mean [1, 3]: -0.05556; EASY_mean ([2]; ELISA signal, mean, […]): -0.02435 |
| LMPFGSLLDY [CS1022] | -0.05808 | – | 0.006828 | – |
| GRAKLLGAEEKE [LR1049] | -0.05058 | – | -0.01715 | – |
| FGSLLDYVREH [CS1036] | 0.04199 | – | 0.0933 | EZ50kDa [1]: 0.0420 ± 0.010 |
| LMPFGSLL [CS1003] | -0.06827 | – | 0.002317 | – |
| QLIMQLMPFG [TM1024] | – | – | – | EZ_mean [1, 3]: -0.01105; Norm_mean [1, 3]: 0.009219; EASY_mean ([2]; ELISA signal, mean, […]): -0.01897 |
| PVAIKTSPKANK [EX1025] | – | – | -0.00741 | EZ_mean [1, 5]: -0.1057 |
| GRAKLLGAE [LR1016] | -0.03777 | – | – | EASY_mean ([2]; ELISA signal, mean, […]): -0.02066 |
| IKTSPKAN [EX1002] | -0.02894 | – | -0.005748 | – |
| TSTVQLIM [TM1001] | – | -0.02312 | – | EZ_mean [1, 7]: -0.08359 |
| ITQLMPFGS [CS1009] | -0.06498 | – | -0.02581 | – |
| FGRAKLLGA [LR1015] | -0.04617 | -0.02405 | – | – |
| FGSLLDYV [CS1006] | -0.06948 | – | -0.03548 | – |
| FGSLLDYVR [CS1015] | -0.05849 | – | -0.01602 | – |
| VQLIMQLM [TM1004] | – | -0.05004 | – | EZ_mean [1, 7]: -0.1305 |
| MQLMPFGCLLD [TM1038] | -0.125 | – | – | EASY_mean ([2]; ELISA signal, mean, […]): -0.0584 |
| LMPFGSLLDYV [CS1033] | -0.06309 | – | -0.01373 | – |
| KTSPKANKEI [EX1014] | – | -0.002118 | – | EZ_mean [1, 6]: -0.1022 |
| LIMQLMPFGCLL [TM1048] | -0.1103 | – | -0.04956 | – |
| CLTSTVQLIMQ [TM1029] | -0.1239 | – | – | EASY_mean ([2]; ELISA signal, mean, […]): -0.0718 |
| TDFGRAKLLGAE [LR1046] | – | – | -0.01889 | EZ_mean ([1]; EASY MHC-I A*11:01, gel 2019-07-24 lr1046_ex1004 5min, mean of 2 replicates): -0.05291; EZ50kD (normalised: EBV1101 = 1, EBV0201 = 0) [1, 9]: -0.04519; Norm (50 kDa band adj. volume normalised: Undig_37C = 1, Dig_37C = 0) [1, 9]: -0.03888; EZ50kD (normalised: EBV1101 = 1, EBV0201 = 0) [1, 10]: -0.06064; Norm (50 kDa band adj. volume normalised: Undig_37C = 1, Dig_37C = 0) [1, 10]: 0.001098 |
